Source: patent US20230414607A1, “METHODS OF TREATMENT” (BOW RIVER LLC, priority 2017, published 2023)
Like-named read-outs stand apart in the source and are kept apart here.

Columns and labels:
[1] = Noxafil label, cited from earlier work
CYP3A4 = CYP3A4 (Homo sapiens, UniProt P08684); conditions: human
Source text: Blood plasma levels may be described in various ways, such as area under the plasma concentration curve (AUC) and peak plasma concentration (Cmax). Baseline levels and posaconazole interaction levels for CYP3A4 substrate drugs may be compared using the geometric mean ratio (GMR) of AUC and Cmax. […] GMR is the standard industry and regulatory method for assessing the ratio of change of a pharmacokinetic variable (such as AUC) relative to its own baseline value (e.g., in a patient that was not treated with posaconazole). Once the level of substrate drug (AUC or Cmax) during co-administration with posaconazole and a CYP3A4 substrate drug is known, a function can be derived using conventional pharmacological methods to estimate how the AUC or plasma level of the CYP3A4 substrate drug is expected to decay over time after stopping administration of posaconazole. Such a function can be used to provide a plot of the decay GMR of AUC (or Cmax) of the CYP3A4 substrate drug versus time due to its interaction with posaconazole, based on the stated half-life of posaconazole.
The expected DDI decay curve can also be calculated for Cmax GMR by substituting Cmax during co-administration for AUC during co-administration in equation 1. As used herein, “expected levels” and “predicted levels” and the like, refer to the AUC or Cmax GMR values calculated using equation 1.

[2] = Pooled posaconazole steady-state concentration and elimination half-life, clinical studies BOW-001 and BOW-002; assay type: in vivo, human; conditions: for half-life: human, in vivo
Source text: The two clinical studies used the same protocol to measure posaconazole's elimination half-life, allowing for the data for normal patients from each study to be combined (“All Normal”) and data for obese patients from each study to be combined (“All Obese”).

[3] = Example 2: posaconazole pharmacokinetics in normal-weight and obese subjects; assay type: in vivo, human; conditions: for Steady-state concentration, Mean ± SD: posaconazole 300 mg once daily; for half-life: human, plasma, oral
Protocol: On study Day 4, subjects received two doses of posaconazole (300 mg BID). On the mornings of Days 5-17, they received posaconazole 300 mg once daily. As posaconazole is to be taken with food, subjects were fed a continental breakfast in the clinical research unit after receiving posaconazole and prior to discharge from the unit. Venous blood samples were drawn into EDTA containing tubes prior to the posaconazole dose on Days 4, 7, 11, and prior to the lurasidone dose on Days 14, 20, 23, 26 and 30. An additional blood sample was taken 5 hours after posaconazole dosage on Day 17, for approximate determination of maximum posaconazole plasma concentrations, and on Day 33. Samples were centrifuged and the plasma was separated and frozen at −70° C. until the time of assay.
Analytic Methods. All bioassay analyses were performed by Keystone Bioanalytical, North Wales, PA. For analysis of posaconazole, the internal standard (posaconazole-D4) was added to the biological samples. Plasma samples were precipitated using formic acid in acetonitrile and isolated using a Phree phospholipid removal tube. An aliquot of the sample was injected onto a high-pressure liquid chromatograph with tandem mass spectrometry triple quadrupole mass spectrometer (SCIEX API-5500). The analytical column was a Unison CK-218, 3 μm particle size HPLC column (50×2 mm) from Imtakt USA (Portland, OR). The mobile phase consisted of an aqueous component (0.25% formic acid and 10 mM ammonium formate in water) and an organic component (0.1% formic acid in acetonitrile) and was delivered by gradient, with the organic component going from 35% to 100%. The m/z transitions monitored were 701.6>614.4 for posaconazole and 705.6>618.4 for the internal standard. The calibration curve ranged from 1-1000 ng/mL (8 concentrations in duplicate).
Pharmacokinetic and Statistical Methods. […] The apparent washout half-life of posaconazole was calculated by log-linear regression analysis starting with the plasma concentration on Day 20 and ending with the last non-zero value. Differences between normal-weight and obese cohorts were evaluated by Student's t-test for independent groups. The relation between measures of body habitus and posaconazole washout half-life for individual subjects was evaluated by linear regression analysis.

[4] = Example 3: posaconazole posttreatment washout; assay type: in vivo; conditions: human, plasma, oral, 300 mg
[5] = Plasma posaconazole concentrations and washout half-life in normal-weight and obese subjects; assay type: in vivo, human; conditions: for Trough (predose) steady-state posaconazole concentration: Day 15, posaconazole 300 mg delayed-release tablet daily; for half-life: human, plasma, oral, from day 15, read-out: Postdosage washout half-life of posaconazole (converted)
Protocol: On study day 2, subjects received posaconazole (300 mg delayed-release tablet twice a day), and on the mornings of days 3-15, subjects received posaconazole (300 mg delayed-release tablet daily). Because posaconazole is to be taken with food,^6 subjects were fed a continental breakfast in the clinical research unit after receiving posaconazole and before discharge from the unit. […] One additional blood sample was taken 5 hours after the posaconazole dose on day 15 for approximate determination of maximum plasma posaconazole concentrations. Samples were centrifuged, and the plasma was separated and frozen at −70° C. until the time of assay of plasma posaconazole concentrations.
Analytic Methods. All bioassay analysis was performed by Keystone Bioanalytical (North Wales, PA). For analysis of posaconazole, the internal standard (posaconazole-d4) was added to the biological samples. Plasma samples were precipitated using formic acid in acetonitrile and isolated using a Phree phospholipid removal tube, and then an aliquot of the sample was injected onto a high-pressure liquid chromatography with tandem mass spectrometry triple quadrupole mass spectrometer (Sciex API-5500). The analytical column was a Unison CK-218, 3 μm particle size HPLC column (50×2 mm) from Imtakt USA (Portland, OR). The mobile phase consisted of an aqueous component (0.25% formic acid and 10 mmol/L ammonium formate in water) and an organic component (0.1% formic acid in acetonitrile) and was delivered by gradient, with the organic component going from 35% to 100%. The m/z transitions monitored were 701.6→614.4 for posaconazole and 705.6→618.4 for the internal standard. The calibration curve ranged from 1 to 1000 ng/mL (8 concentrations in duplicate). The interassay precision of this method (as percentage coefficient of variance) was 4.28% to 7.14%, and the interassay accuracy (as percentage relative error) was […] to 3.12%.
For each subject, the predose plasma posaconazole concentration on study day 15 was used as a steady-state concentration. The apparent washout half-life of posaconazole was calculated by log-linear regression analysis starting with the plasma concentration on day 15 and ending with the last nonzero value. Differences between normal-weight and obese cohorts were evaluated by Student t-test for independent groups.

Sequence of CYP3A4 (P08684 whole entry): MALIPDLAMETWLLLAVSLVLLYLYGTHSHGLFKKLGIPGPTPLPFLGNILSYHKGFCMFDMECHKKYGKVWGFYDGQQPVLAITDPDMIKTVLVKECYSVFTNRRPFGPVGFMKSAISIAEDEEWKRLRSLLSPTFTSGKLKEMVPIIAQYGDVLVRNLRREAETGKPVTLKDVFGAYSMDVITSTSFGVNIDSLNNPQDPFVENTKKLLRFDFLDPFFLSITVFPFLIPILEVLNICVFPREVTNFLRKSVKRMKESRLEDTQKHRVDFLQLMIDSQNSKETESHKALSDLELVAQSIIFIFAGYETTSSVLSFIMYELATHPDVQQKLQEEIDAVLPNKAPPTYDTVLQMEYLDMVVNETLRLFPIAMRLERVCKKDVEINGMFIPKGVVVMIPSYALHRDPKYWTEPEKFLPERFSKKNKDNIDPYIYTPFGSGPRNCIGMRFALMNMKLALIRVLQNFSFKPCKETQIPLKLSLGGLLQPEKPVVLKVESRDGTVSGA

Compound: CC[C@@H]([C@H](C)O)n1ncn(-c2ccc(N3CCN(c4ccc(OC[C@@H]5CO[C@@](Cn6cncn6)(c6ccc(F)cc6F)C5)cc4)CC3)cc2)c1=O [posaconazole]
- posaconazole half-life ([1]; after administration of posaconazole oral suspension): 31 to 37 h
- posaconazole half-life ([1]; after dosing with posaconazole injection): about 24 hours
- posaconazole half-life ([1]; patients with mild hepatic impairment): 39 h
- posaconazole half-life ([1]; patients with moderate hepatic impairment): 27 h
- posaconazole half-life ([1]; patients with normal hepatic function): 27 h
- posaconazole half-life ([1]; patients with severe hepatic impairment): 43 h
- Kel=ln(2)/(31 hours/24 hours) (CYP3A4): about 0.5366
- Css, Mean ([2]; All Normal (pooled)): 2864 ng/mL
- Css, Mean ([2]; All Obese (pooled)): 1860 ng/mL
- Css, Mean ([2]; BOW-001 Normal): 3071 ng/mL
- Css, Mean ([2]; BOW-001 Obese): 2258 ng/mL
- Css, Mean ([2]; BOW-002 Normal): 2514 ng/mL
- Css, Mean ([2]; BOW-002 Obese): 1462 ng/mL
- half-life ([2]; All Normal (pooled), normal weight patients, read-out: t1/2, Mean (elimination half-life) (converted)): 33.6 h
- half-life ([2]; All Obese (pooled), obese patients, read-out: t1/2, Mean (elimination half-life) (converted)): 58.3 h
- half-life ([2]; BOW-001 Normal, read-out: t1/2, Mean (converted)): 35.7 h
- half-life ([2]; BOW-001 Obese, read-out: t1/2, Mean (converted)): 64.5 h
- half-life ([2]; BOW-002 Normal, read-out: t1/2, Mean (converted)): 30.9 h
- half-life ([2]; BOW-002 Obese, read-out: t1/2, Mean (converted)): 52.5 h
- Steady-state concentration, Mean ± SD ([3]; Normal): 2377 ± 1188 ng/mL
- Steady-state concentration, Mean ± SD ([3]; Obese): 1462 ± 649 ng/mL
- half-life ([3]; Normal, read-out: Washout half-life, Mean ± SD (converted)): 31 h
- half-life ([3]; Obese, read-out: Washout half-life, Mean ± SD (converted)): 53 h
- half-life ([3]; controls (normal-weight), read-out: Mean washout half-life (converted)): 30.7 h
- half-life ([3]; obese group, read-out: Mean washout half-life (converted)): 52.6 h
- half-life ([3]; two obese subjects, read-out: very long half-life values (converted)): 121 h
- half-life ([4]; normals): 36 h
- half-life ([4]; obese subjects): 64 h
- Trough (predose) steady-state posaconazole concentration ([5]; normal-weight subjects): 3071 ± 1422 ng/mL
- Trough (predose) steady-state posaconazole concentration ([5]; obese subjects): 2258 ± 952 ng/mL
- half-life ([5]; normal-weight subjects): 35.8 h
- half-life ([5]; obese subjects): 64.3 h
- Time posaconazole plasma concentrations persisted after stopping treatment ([5]; most subjects): at least 2 weeks
